These are literature values, as cited in patent US9828409B2, “Bridged-cyclo-ProTides as prodrugs of therapeutic nucleosides and nucleotides” (priority 2014, dated 2017).

The conditions of the series: patients in clinical trials.

The structures appear in SMILES notation.

In the case of `CCOc1nc(N)nc2c1ncn2[C@@H]1O[C@@H]2COP(=O)(OC(C)C)O[C@H]2[C@@]1(C)F` (stereo partly shown) [PSI-352938], the “level of liver enzymes in patients” value is given as “elevated level of liver enzymes”.
